Reference: ChEMBL document CHEMBL6182851, “Discovery of dual CDK4/6 and BRD4 inhibitor as apoptosis and autophagy inducers against NSCLC in vitro and in vivo” (Eur J Med Chem, 2025)
Active and inactive are the calls of the source. The rule behind the calls is not given here.

What was measured:
NCI-H460 [1] = assay: Induction of apoptosis in human NCI-H460 cells assessed as necrotic cells at 20 uM incubated for 48 hrs by Annexin V-PE/7-AAD staining based flow cytometric analysis (reference value: 0.79 %); type: functional
NCI-H460 [2] = assay: Induction of autophagy in human NCI-H460 cells assessed as increase in number of autophagosomes at 20 uM in presence of ribociclib incubated for 48 hrs by MDC staining and LC3B immunofluorescence analysis; type: functional, cell-based
NCI-H460 [3] = assay: Induction of cell cycle arrest in human NCI-H460 cells assessed as accumulation of cells at G2 phase at 20 uM incubated for 48 hrs by PI staining based flow cytometric analysis (reference value: 11.0 %); type: functional
NCI-H460 [4] = assay: Antitumor activity against human NCI-H460 cells xenografted in female BALB/c nude mouse assessed as tumor growth inhibition at 50 mg/kg, ip administered for 21 consecutive days relative to control; type: functional; details: NCI-H460, 504 h, time 21 day, read-out: TGI
NCI-H1299 [5] = assay: cells; details: Homo sapiens, NCI-H1299, 48 h
Description: Antitumor activity against human NCI-H1299 cells assessed as inhibition of cell viability incubated for 48 hrs by MTT assay

NCI-H460 [6] = assay: Induction of apoptosis in human NCI-H460 cells assessed as late apoptotic cells at 20 uM incubated for 48 hrs by Annexin V-PE/7-AAD staining based flow cytometric analysis (reference value: 3.76 %); type: functional
[7] = biological target: Bromodomain-containing protein 4 (Homo sapiens) (UniProt O60885); details: dose 1000.0 nM
Description: Inhibition of BRD4 BD2 (unknown origin) assessed as inhibition ratio at 1000 nM relative to control

NCI-H460 [8] = assay: Induction of cell cycle arrest in human NCI-H460 cells assessed as accumulation of cells at G1 phase at 20 uM incubated for 48 hrs by PI staining based flow cytometric analysis (reference value: 56.7 %); type: functional
NCI-H460 [9] = assay: Antitumor activity against human NCI-H460 cells assessed as inhibition of cell viability incubated for 48 hrs in presence of ribociclib by MTT assay; type: functional, cell-based; details: NCI-H460, 48 h
NCI-H460 [10] = assay: Induction of apoptosis in human NCI-H460 cells assessed as late apoptotic cells at 20 uM incubated for 48 hrs in presence of ribociclib by Annexin V-PE/7-AAD staining based flow cytometric analysis (reference value: 3.76 %); type: functional
NCI-H460 [11] = assay: Induction of apoptosis in human NCI-H460 cells assessed as necrotic cells at 20 uM incubated for 48 hrs in presence of ribociclib by Annexin V-PE/7-AAD staining based flow cytometric analysis (reference value: 0.79 %); type: functional
A549 [12] = assay: Antitumor activity against human A549 cells assessed as inhibition of cell viability incubated for 48 hrs in presence of ribociclib by MTT assay; type: functional, cell-based; details: A549, 48 h
A549 [13] = assay: cells; details: Homo sapiens, A549, 48 h
Description: Antitumor activity against human A549 cells assessed as inhibition of cell viability incubated for 48 hrs by MTT assay

NCI-H460 [14] = assay: Induction of autophagy in human NCI-H460 cells assessed as increase in autophagosomes at 20 uM incubated for 48 hrs by MDC staining and LC3B immunofluorescence analysis; type: functional, cell-based
NCI-H460 [15] = assay: Induction of cell cycle arrest in human NCI-H460 cells assessed as accumulation of cells at S phase at 20 uM incubated for 48 hrs by PI staining based flow cytometric analysis (reference value: 33.3 %); type: functional
NCI-H460 [16] = assay: Induction of apoptosis in human NCI-H460 cells assessed as early apoptotic cells at 20 uM incubated for 48 hrs in presence of ribociclib by Annexin V-PE/7-AAD staining based flow cytometric analysis (reference value: 3.58 %); type: functional
NCI-H460 [17] = assay: Induction of cell cycle arrest in human NCI-H460 cells assessed as accumulation of cells at S phase at 20 uM in presence of ribociclib incubated for 48 hrs by PI staining based flow cytometric analysis (reference value: 33.3 %); type: functional
NCI-H460 [18] = assay: Induction of apoptosis in human NCI-H460 cells assessed as early apoptotic cells at 20 uM incubated for 48 hrs by Annexin V-PE/7-AAD staining based flow cytometric analysis (reference value: 3.58 %); type: functional
NCI-H460 [19] = assay: Induction of autophagy in human NCI-H460 cells assessed as increase in acidic vesicles at 20 uM incubated for 48 hrs by MDC staining and LC3B immunofluorescence analysis; type: functional, cell-based
NCI-H460 [20] = assay: Antitumor activity against human NCI-H460 cells xenografted in female BALB/c nude mouse assessed as tumor growth inhibition at 50 mg/kg, ip administered for 21 consecutive days in presence of ribociclib relative to control; type: functional; details: NCI-H460, 504 h, time 21 day, read-out: TGI
NCI-H1299 [21] = assay: Antitumor activity against human NCI-H1299 cells assessed as inhibition of cell viability incubated for 48 hrs in presence of ribociclib by MTT assay; type: functional, cell-based; details: NCI-H1299, 48 h
NCI-H460 [22] = assay: Induction of cell cycle arrest in human NCI-H460 cells assessed as accumulation of cells at G2 phase at 20 uM in presence of ribociclib incubated for 48 hrs by PI staining based flow cytometric analysis (reference value: 11.0 %); type: functional
NCI-H460 [23] = assay: Induction of cell cycle arrest in human NCI-H460 cells assessed as accumulation of cells at G1 phase at 20 uM in presence of ribociclib incubated for 48 hrs by PI staining based flow cytometric analysis (reference value: 56.7 %); type: functional
NCI-H460 [24] = assay: cells; details: Homo sapiens, NCI-H460, 48 h
Description: Antitumor activity against human NCI-H460 cells assessed as inhibition of cell viability incubated for 48 hrs by MTT assay

- IC50 (NCI-H1299 [5]): 18.4 µM
- inhibition [7]: 89.8%
- IC50 (NCI-H460 [9]): 10.3 µM
- IC50 (A549 [12]): 18.8 µM
- IC50 (A549 [13]): > 40 µM
- IC50 (NCI-H1299 [21]): 8.16 µM
- IC50 (NCI-H460 [24]): > 40 µM
Compound: COc1cc(OC)c2c(=O)[nH]c(-c3cc(C)c(OCCO)c(C)c3)nc2c1 [APABETALONE]
- Activity (NCI-H460 [1]): 1.59%
- Activity (NCI-H460 [2]): inactive
- Activity (NCI-H460 [3]): 13%
- inhibition in vivo at 50 mg/kg (NCI-H460 [4]): 37.5%
- Activity (NCI-H460 [6]): 4.99%
- Activity (NCI-H460 [8]): 56%
- Activity (NCI-H460 [10]): 5.71%
- Activity (NCI-H460 [11]): 1.11%
- Activity (NCI-H460 [14]): inactive
- Activity (NCI-H460 [15]): 30.1%
- Activity (NCI-H460 [16]): 13.8%
- Activity (NCI-H460 [17]): 9.38%
- Activity (NCI-H460 [18]): 2.05%
- Activity (NCI-H460 [19]): inactive
- inhibition in vivo at 50 mg/kg (NCI-H460 [20]): 72%
- Activity (NCI-H460 [22]): 4.4%
- Activity (NCI-H460 [23]): 87.9%
